Experimental data reported in patent publication US7550485B2, “Substituted N-heterocycle derivatives and methods of their use” (Wyeth, priority 2003, dated 2009).
Structures can show the parent of a compound that is named as a salt.

Target: T1, hNET (Homo sapiens, UniProt P23975)
T1 construct: expressed in transfected cells
Experiment: Norepinephrine (NE) uptake assay in MDCK-Net6 cells stably transfected with human hNET
Format: cell-based
Settings: [3H]NE uptake; for inhibition at 1 µM: MDCK-Net6, 1 μM test compound; for EC50: test range 1 to 10,000 nM; for inhibition at 30 µM: MDCK-Net6, 30 μM test compound (stated in cell)
Protocol: MDCK-Net6 cells, stably transfected with human hNET (Pacholczyk, T., R. D. Blakely, and S. G. Amara, Nature, 1991, 350(6316): p. 350-4) were cultured in growth medium containing high glucose DMEM (Gibco, Cat. No. 11995), 10% FBS (dialyzed, heat-inactivated, US Bio-Technologies, Lot FBD1129HI) and 500 μg/ml G418 (Gibco, Cat. No. 10131). Cells were plated at 300,000/T75 flask and cells were split twice weekly. The JAR cell line (human placental choriocarcinoma) was purchased from ATCC (Cat. No. HTB-144). The cells were cultured in growth medium containing RPMI 1640 (Gibco, Cat. No. 72400), 10% FBS (Irvine, Cat. No. 3000), 1% sodium pyruvate (Gibco, Cat. No. 1136) and 0.25% glucose. Cells were plated at 250,000 cells/T75 flask and split twice weekly. For all assays, cells were plated in Wallac 96-well sterile plates (PerkinElmer, Cat. No. 3983498).
Norepinephrine (NE) Uptake Assay
On day 1, cells were plated at 3,000 cells/well in growth medium and maintained in a cell incubator (37° C., 5% CO2). On day 2, growth medium was replaced with 200 μl of assay buffer (25 mM HEPES; 120 mM NaCl; 5 mM KCl; 2.5 mM CaCl2; 1.2 mM MgSO4; 2 mg/ml glucose (pH 7.4, 37° C.)) containing 0.2 mg/ml ascorbic acid and 10 μM pargyline. Plates containing cells with […] of assay buffer were equilibrated for 10 minutes at 37° C. prior to addition of compounds. A stock solution of desipramine was prepared in DMSO (10 mM) and delivered to triplicate wells containing cells for a final test concentration of 1 μM. Data from these wells were used to define non-specific NE uptake (minimum NE uptake). Test compounds were prepared in DMSO (10 mM) and diluted in assay buffer according to test range (1 to 10,000 nM). Twenty-five microliters of assay buffer (maximum NE uptake) or test compound were added directly to triplicate wells containing cells in 200 μl of assay buffer. The cells in assay buffer with test compounds were incubated for 20 minutes at 37° C. To initiate the NE uptake, [^3H]NE diluted in assay buffer (120 nM final assay concentration) was delivered in 25 μl aliquots to each well and the plates were incubated for 5 minutes (37° C.). The reaction was terminated by decanting the supernatant from the plate. The plates containing cells were washed twice with 200 μl assay buffer (37° C.) to remove free radioligand. The plates were then inverted, left to dry for 2 minutes, then reinverted and air-dried for an additional 10 minutes. The cells were lysed in 25 μl of 0.25 N NaOH solution (4° C.), placed on a shake table and vigorously shaken for 5 minutes. After cell lysis, 75 μl of scintillation cocktail was added to each well and the plates were sealed with film tape. The plates were returned to the shake table and vigorously shaken for a minimum of 10 minutes to ensure adequate partitioning of organic and aqueous solutions. The plates were counted in a Wallac Microbeta counter (PerkinElmer) to collect the raw cpm data.
For each experiment, a data stream of cpm values collected from the Wallac Microbeta counter was downloaded to a Microsoft Excel statistical application program. Calculations of EC50 values were made using the transformed-both-sides logistic dose response program written by Wyeth Biometrics Department. The statistical program uses mean cpm values from wells representing maximum binding or uptake (assay buffer) and mean cpm values from wells representing minimum binding or uptake ((1 μM desipramine (hNET) or 1 μM paroxetine (hSERT)). Estimation of the EC50 value was completed on a log scale and the line was fit between the maximum and minimum binding or uptake values. All graphic data representation was generated by normalizing each data point to a mean percent based on the maximum and minimum binding or uptake values. The EC50 values reported from multiple experiments were calculated by pooling the raw data from each experiment and analyzing the pooled data as one experiment.

T1 sequence (P23975 whole entry): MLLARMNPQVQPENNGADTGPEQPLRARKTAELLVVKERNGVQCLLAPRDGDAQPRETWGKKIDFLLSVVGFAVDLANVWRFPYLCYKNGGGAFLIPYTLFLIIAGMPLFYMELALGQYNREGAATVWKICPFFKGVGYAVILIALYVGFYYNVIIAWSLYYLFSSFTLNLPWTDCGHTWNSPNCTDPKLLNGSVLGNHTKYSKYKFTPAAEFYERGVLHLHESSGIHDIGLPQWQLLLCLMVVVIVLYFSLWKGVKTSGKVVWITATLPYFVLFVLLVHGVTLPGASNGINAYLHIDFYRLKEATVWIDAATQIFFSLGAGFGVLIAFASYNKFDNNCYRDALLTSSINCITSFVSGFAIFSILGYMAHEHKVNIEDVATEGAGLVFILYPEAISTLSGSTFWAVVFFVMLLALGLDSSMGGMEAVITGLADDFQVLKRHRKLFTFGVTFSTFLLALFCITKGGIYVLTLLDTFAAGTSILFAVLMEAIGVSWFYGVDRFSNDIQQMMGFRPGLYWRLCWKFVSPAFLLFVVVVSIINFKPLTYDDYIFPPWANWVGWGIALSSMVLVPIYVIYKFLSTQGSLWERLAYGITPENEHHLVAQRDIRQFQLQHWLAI

Row | inhibition at 1 µM [%] | EC50 [nM] | inhibition at 30 µM [%] | SMILES
1 | 95.6 |  |  | CN(C)[C@H]1CCN(CC(c2ccc(OCc3ccccc3)c(Cl)c2)C2(O)CCCCC2)C1 (stereo partly drawn) [Example 211, 1-{1-[4-(benzyloxy)-3-chlorophenyl]-2-[(3S)-3-(dimethylamino)pyrrolidin-1-yl]ethyl}cyclohexanol dihydrochloride]
2 | 67.9 |  |  | CN[C@H]1CCCN(CC(c2cccc(OC(F)(F)F)c2)C2(O)CCCCC2)C1 (stereo partly drawn) [Example 189, 1-{2-[(3S)-3-(methylamino)piperidin-1-yl]-1-[3-(trifluoromethoxy)phenyl]ethyl}cyclohexanol dihydrochloride]
3 | 30 |  |  | CN[C@@H]1CCN(CC(c2ccc3ccccc3c2)C2(O)CCCCC2)C1 (stereo partly drawn) [Example 376, 1-[2-[(3R)-3-(methylamino)pyrrolidin-1-yl]-1-(2-naphthyl)ethyl]cyclohexanol dihydrochloride]
4 | 67 | 640 |  | OC1(C(CN2CCC(N3CCOCC3)CC2)c2cccc(OC(F)(F)F)c2)CCCCC1 (stereo not drawn) [Example 361, 1-{2-(4-morpholin-4-ylpiperidin-1-yl)-1-[3-(trifluoromethoxy)phenyl]ethyl}cyclohexanol dihydrochloride]
5 |  | 85 |  | N[C@H]1CCN(C[C@@H](c2cccc(Cl)c2)C2(O)CCCCC2)C1 [Example 388, 1-[(1 R)-2-[(3S)-3-aminopyrrolidin-1-yl]-1-(3-chlorophenyl)ethyl]cyclohexanol dihydrochloride]
6 | 67 | 320 |  | COc1ccc2cc([C@@H](CN3CCC(N4CCCCC4)CC3)C3(O)CCCCC3)ccc2c1 (single isomer, unassigned) [Example 353, dihydrochloride]
7 | 89 | 210 |  | CNC1CCN(CC(c2ccc(Cl)c(Cl)c2)C2(O)CCCCC2)CC1 (stereo not drawn) [Example 13, 1-{1-(3,4-dichlorophenyl)-2-[4-(methylamino)piperidin-1-yl]ethyl}cyclohexanol dihydrochloride]
8 | 95 | 140 |  | COc1ccc(C(CN2CCC(N3CCCCC3)CC2)C2(O)CCCCC2)cc1Br (stereo not drawn) [Example 8, 1-[2-(1,4′-bipiperidin-1′-yl)-1-(3-bromo-4-methoxyphenyl)ethyl]cyclohexanol dihydrochloride]
9 | 20 |  |  | N[C@@H]1CCN(CC(c2ccc(OCc3ccccc3)cc2)C2(O)CCCCC2)C1 (stereo partly drawn) [Example 380, 1-{2-[(3R)-3-aminopyrrolidin-1-yl]-1-[4-(benzyloxy)phenyl]ethyl}cyclohexanol dihydrochloride]
10 | 18 |  |  | COc1ccc2scc(C(CN3CCC(N)CC3)C3(O)CCCCC3)c2c1 (stereo not drawn) [Example 280, 1-[2-(4-aminopiperidin-1-yl)-1-(5-methoxy-1-benzothien-3-yl)ethyl]cyclohexanol dihydrochloride]
11 | 27.3 |  |  | CN[C@H]1CCN(CC(c2cccc(C(F)(F)F)c2)C2(O)CCCCC2)C1 (stereo partly drawn) [Example 220, 1-{2-[(3S)-3-(methylamino)pyrrolidin-1-yl]-1-[3-(trifluoromethyl)phenyl]ethyl}cyclohexanol dihydrochloride]
12 | 94 | 78 |  | OC1([C@H](CN2CCC(N3CCCC3)CC2)c2cccc(OC(F)(F)F)c2)CCCCC1 [Example 365, 1-{(1S)-2-(4-pyrrolidin-1-ylpiperidin-1-yl)-1-[3-(trifluoromethoxy)phenyl]ethyl}cyclohexanol dihydrochloride]
13 | 79 |  |  | CC(C)(O)C(CN1CCC(N)CC1)c1cccc(Cl)c1 (stereo not drawn) [Example 273, 4-(4-aminopiperidin-1-yl)-3-(3-chlorophenyl)-2-methylbutan-2-ol dihydrochloride]
14 |  |  | 82 | N[C@@H]1CCN(CC(c2cccc3ccccc23)C2(O)CCCCC2)C1 (stereo partly drawn) [Example 377, 1-[2-[(3R)-3-aminopyrrolidin-1-yl]-1-(1-naphthyl)ethyl]cyclohexanol dihydrochloride]
15 |  |  | 82 | N[C@@H]1CCN(CC(c2cccc(OC(F)(F)F)c2)C2(O)CCCCC2)C1 (stereo partly drawn) [Example 386, 1-{2-[(3R)-3-aminopyrrolidin-1-yl]-1-[3-(trifluoromethoxy)phenyl]ethyl}cyclohexanol dihydrochloride]
16 | 87.3 |  |  | CN(C)C1CCN(CC(c2cccc(Cl)c2)C2CCCC2)CC1 (stereo not drawn) [Example 229, 1-[2-(3-chlorophenyl)-2-cyclopentylethyl]-N,N-dimethylpiperidin-4-amine dihydrochloride]
17 | 39 |  |  | CNC1CCN(CC(c2ccc3ccccc3c2)C2(O)CCCCC2)CC1 (stereo not drawn) [Example 49, 1-[2-[4-(methylamino)piperidin-1-yl]-1-(2-naphthyl)ethyl]cyclohexanol dihydrochloride]
18 | 91 | 260 |  | OC1(C(CN2CCC(N3CCCC3)CC2)c2ccc(Cl)c(Cl)c2)CCCCC1 (stereo not drawn) [Example 11, 1-[1-(3,4-dichlorophenyl)-2-(4-pyrrolidin-1-ylpiperidin-1-yl)ethyl]cyclohexanol dihydrochloride]
19 | 50.4 |  |  | CN[C@@H]1CCCN(CC(c2cccc(OC(F)(F)F)c2)C2(O)CCCCC2)C1 (stereo partly drawn) [Example 186, 1-[2-{(3R)-3-(methylamino)piperidin-1-yl]-1-[3-(trifluoromethoxy)phenyl]ethyl}cyclohexanol dihydrochloride]
20 | 65.7 |  |  | N[C@H]1CCN(CC(c2cccc3ccccc23)C2(O)CCCCC2)C1 (stereo partly drawn) [Example 207, 1-[2-[(3S)-3-aminopyrrolidin-1-yl]-1-(1-naphthyl)ethyl]cyclohexanol dihydrochloride]
21 | 85 | 160 |  | OC1(C(CN2CCC(N3CCCCC3)CC2)c2ccc3ccccc3c2)CCCCC1 (stereo not drawn) [Example 22, 1-[2-(1,4′-bipiperidin-1′-yl)-1-(2-naphthyl)ethyl]cyclohexanol dihydrochloride]
22 | 59.2 |  |  | CN[C@H]1CCN(CC(c2ccc3ccccc3c2)C2(O)CCCCC2)C1 (stereo partly drawn) [Example 203, 1-[2-[(3S)-3-(methylamino)pyrrolidin-1-yl]-1-(2-naphthyl)ethyl]cyclohexanol dihydrochloride]
23 | 65 | 270 |  | CN[C@@H]1CCN(CC(c2ccc(OCc3ccccc3)c(Cl)c2)C2(O)CCCCC2)C1 (stereo partly drawn) [Example 385, 1-{1-[4-(benzyloxy)-3-chlorophenyl]-2-[(3R)-3-(methylamino)pyrrolidin-1-yl]ethyl}cyclohexanol dihydrochloride]
24 | 84.5 |  |  | N[C@H]1CCN(CC(c2ccc(OCc3ccccc3)cc2)C2(O)CCCCC2)C1 (stereo partly drawn) [Example 213, 1-{2-[(3S)-3-aminopyrrolidin-1-yl]-1-[4 (benzyloxy)phenyl]ethyl}cyclohexanol dihydrochloride]
25 | 31.9 |  |  | CN(C)[C@H]1CCN(CC(c2cccc(C(F)(F)F)c2)C2(O)CCCCC2)C1 (stereo partly drawn) [Example 222, 1-{2-[(3S)-3-(dimethylamino)pyrrolidin-1-yl]-1-[3-(trifluoromethyl)phenyl]ethyl}cyclohexanol dihydrochloride]
26 | 89 | 120 |  | N[C@H]1CCN(CC(c2cccc(Cl)c2)C2(O)CCCCC2)C1 (stereo partly drawn) [Example 16, 1-[2-[(3S)-3-aminopyrrolidin-1-yl]-1-(3-chlorophenyl)ethyl]cyclohexanol dihydrochloride]
27 | 62.3 |  |  | N[C@@H]1CCCN(CC(c2cccc(OC(F)(F)F)c2)C2(O)CCCCC2)C1 (stereo partly drawn) [Example 187, 1-[2-{(3R)-3-aminopiperidin-1-yl]-1-[3-(trifluoromethoxy)phenyl]ethyl}cyclohexanol dihydrochloride]
